Data as given in patent US8507537B2, “Trifluromethoxyphenyl-substituted tetramic acid derivatives pesticides and/or herbicides” (Bayer CropScience AG, priority 2006, dated 2013).

Columns and labels:
Format in all cases: in vivo
[1] = system: green peach aphid (Myzus persicae); test: Activity boost through ammonium/phosphonium salts, Myzus persicae test; details: 20 ppm active compound
Description: Activity Boost Through Ammonium/Phosphonium Salts
(§1) Solvent: 7 parts by weight of dimethylformamide
(§2) Emulsifier: 2 parts by weight of alkylaryl polyglycol ether
(§3) To produce a suitable preparation of active compound, 1 part by weight of active compound is mixed with the stated amounts of solvent and emulsifier, and the concentrate is diluted with water to the desired concentration. For application with ammonium salts or phosphonium salts these are added in a concentration of 1000 ppm a.i. to the spray liquor.
Bell pepper plants (Capsicum annuum) which are heavily infested by the Green peach aphid (Myzus persicae) are treated with the active compound preparation of the desired concentration by spraying to runoff point. After the desired period of time, the kill in % is determined. 100% means that all animals have been killed; 0% means that none of the animals have been killed.

[2] = system: cotton aphid (Aphis gossypii); test: Activity boost through ammonium/phosphonium salts in combination with penetration promoters, Aphis gossypii test; details: 4 ppm active compound
Description: as §1, §2
(§4) To produce a suitable preparation of active compound, 1 part by weight of active compound is mixed with the stated amounts of solvent and emulsifier, and the concentrate is diluted with emulsifier-containing water to the desired concentration. For application with ammonium salts or phosphonium salts and penetration promoters (rapeseed oil methyl ester 500 EW) these are in each case added in a concentration of 1000 ppm a.i. to the spray liquor.
(§5) Cotton plants (Gossypium hirsutum) heavily infested by the cotton aphid (Aphis gossypii) are sprayed to runoff with the preparation of active compound at the desired concentration.
(§6) After the desired period of time, the kill in % is determined. 100% means that all aphids have been killed; 0% means that none of the aphids have been killed.

Summer wheat = test: Greenhouse container trials with cereals, use of safeners (post-emergence herbicidal effect on crop)
Description: (§7) Post-Emergence Herbicidal Effect
Seeds of monocotyledonous and dicotyledonous weed plants and crop plants are placed in sandy loam soil in wood fibre pots or in plastic pots and are covered with earth and cultivated in a greenhouse and also, during the vegetation period, outdoors, outside of the greenhouse, under good growth conditions. 2 to 3 weeks after sowing, the trial plants are treated at the one- to three-leaf stage. The test compounds, formulated as wettable powders (WP) or liquids (EC), are sprayed onto the plants and the soil surface in various dosages, with a water application rate of 300 l/ha (converted) and with addition of wetting agent (0.2% to 0.3%). […]
(§8) If the testing is also to look at whether safeners can improve the tolerance of the crop plants for test substances, the following options are used for the application of the safener: • seeds of the crop plants are dressed with the safener substance prior to sowing (the amount of safener is stated as a percentage, based on the seed weight) • crop plants are sprayed with the safener, with a defined application rate per hectare, prior to application of the test substances (typically 1 day before the test substances are applied) • the safener is applied together with the test substance in the form of a tank mix (the amount of safener is reported in g/ha or as a proportion relative to the herbicide).
(§9) By comparing the effect of test substances on crop plants which have been treated with safener and without safener it is possible to assess the effect of the safener substance.
(§10) Greenhouse Container Trials with Cereals
(§11) Mefenpyr 1 Day Prior to Herbicide Application

[3] = system: green peach aphid (Myzus persicae); test: Activity boost through ammonium/phosphonium salts in combination with penetration promoters, Myzus persicae test; details: 20 ppm active compound
Description: Activity Boost Through Ammonium/Phosphonium Salts in Combination with Penetration Promoters
as §1, §2
as §4, with “with” for “with emulsifier-containing”, “ppm” for “ppm a.i.”
Bell pepper plants (Capsicum annuum) heavily infested by the green peach aphid (Myzus persicae) are sprayed to runoff with the preparation of active compound at the desired concentration. After the desired time, the kill in % is determined. 100% means that all of the animals have been killed; 0% means that no animals have been killed.

[4] = system: cotton aphid (Aphis gossypii); test: Activity boost through ammonium/phosphonium salts, Aphis gossypii test
Description: as §1, §2
as §3, with “diluted with emulsifier-containing water to” for “diluted with water to”
as §5, §6

Summer barley = test: Greenhouse container trials with cereals, use of safeners (post-emergence herbicidal effect on crop); details: without safener; for Summer barley observed (%): 28 days after application; for Summer barley observed (%) herbicidal effect: 10 days after application
Description: as §7
Seeds of monocotyledonous and dicotyledonous weed plants and crop plants are placed in sandy loam soil in wood fibre pots or in plastic pots and are covered with earth and cultivated in a greenhouse and also, during the vegetation period, outdoors, outside of the greenhouse, under good growth conditions. 2 to 3 weeks after sowing, the trial plants are treated at the one- to three-leaf stage. The test compounds, formulated as wettable powders (WP) or liquids (EC), are sprayed onto the plants and the soil surface in various dosages, with a water application rate of 300 l/ha (converted) and with addition of wetting agent (0.2% to 0.3%). 3 to 4 weeks after the trial plants have been treated, the effect of the products is rated visually in comparison to untreated controls (herbicidal effect in percent: 100% effect=plants have died, 0% effect=like control plants).
as §8, §9, §10, §11

[5] = system: rice brown planthopper (Nilaparvata lugens); test: Nilaparvata lugens test (NILALU hydroponic treatment); details: concentration of 500 ppm after 7 d
Description: NILALU Hydroponic Treatment
• 78 parts by weight of acetone • 1.5 parts by weight of dimethylformamide Emulsifier: • 0.5 part by weight of alkylaryl polyglycol ether
To produce a suitable preparation of active compound, 1 part by weight of active compound is mixed with the stated amounts of solvents and emulsifier, and the concentrate is diluted with emulsifier-containing water to the desired concentration.
The active compound preparation is pipetted into water. The stated concentration refers to the amount of active compound per volume unit of water (mg/l=ppm); the infection with the rice brown planthopper (Nilaparvata lugens) is then carried out.
After the desired period of time, the effect in % is determined. 100% means that all rice planthoppers have been killed; 0% means that none of the rice planthoppers have been killed.

[6] = +RME + AS (in each case 1000 ppm)
[7] = 20 ppm active compound, +AS (1000 ppm)
[8] = 20 ppm active compound, without AS

**Q.** Which “Kill rate/% after 6 days” value ([1]; +AS (1000 ppm)) does the source give for COC1CCC2(CC1)NC(=O)C(c1c(Br)cc(OC(F)(F)F)cc1Br)=C2O (single isomer, unassigned) [I-a-32] here?
**A.** The value was 85%.

**Q.** And the “Kill rate/% after 6 days” value ([1]; without AS)?
**A.** The value was 0%.

**Q.** What about the “Kill rate/% after 6 days” value ([2]; +AS (1000 ppm)) of the same compound?
**A.** The value was 30%.

**Q.** And the “Kill rate/% after 6 days” value ([2]; +RME (1000 ppm))?
**A.** The value was 70%.

**Q.** What about the “Kill rate/% after 6 days” value [2, 6] of the same compound?
**A.** The value was 80%.

**Q.** What about the “Kill rate/% after 6 days” value ([2]; without additive) of the same compound?
**A.** The value was 5%.

**Q.** With COC1CCC2(CC1)NC(=O)C(c1c(C)cc(C)cc1OC(F)(F)F)=C2OC(C)=O (single isomer, unassigned) [(I-b-25)] as the compound, how does the “Summer wheat observed (%) herbicidal effect” value (Summer wheat; 100 g of a.i./ha, 10 days after application, without safener (table of I-b-25)) read?
**A.** Its value is 20%.

**Q.** With COC1CCC2(CC1)NC(=O)C(c1c(Cl)cc(OC(F)(F)F)cc1Cl)=C2O (single isomer, unassigned) [I-a-29] as the compound, how does the “Kill rate/% after 6 days” value ([3]; +AS (1000 ppm)) read?
**A.** Its value is 70%.

**Q.** And the “Kill rate/% after 6 days” value ([3]; +RME (1000 ppm))?
**A.** Its value is 95%.

**Q.** And the “Kill rate/% after 6 days” value [3, 6]?
**A.** Its value is 100%.

**Q.** What about the “Kill rate/% after 6 days” value ([3]; without additive) of the same compound?
**A.** The value was 0%.

**Q.** And the “Kill rate/% after 6 days” value ([4]; 4 ppm active compound, +AS (1000 ppm))?
**A.** Its value is 70%.

**Q.** What about the “Kill rate/% after 6 days” value ([4]; 4 ppm active compound, without AS) of the same compound?
**A.** The value was 5%.

**Q.** And the “Kill rate/% after 6 days” value [4, 7]?
**A.** The value was 85%.

**Q.** What about the “Kill rate/% after 6 days” value [4, 8] of the same compound?
**A.** Its value is 70%.

**Q.** How did the “Summer wheat observed (%)” value (Summer wheat; 28 days after application, 12.5 g of a.i./ha, without safener) turn out when COC1CCC2(C1)NC(=O)C(c1c(C)cc(C)cc1OC(F)(F)F)=C2O (single isomer, unassigned) [I-a-50] was run?
**A.** Its value is 10%.

**Q.** And the “Summer wheat observed (%)” value (Summer wheat; 28 days after application, 25 g of a.i./ha, without safener)?
**A.** Its value is 40%.

**Q.** What about the “Summer wheat observed (%)” value (Summer wheat; 28 days after application, 50 g of a.i./ha, without safener) of the same compound?
**A.** Its value is 60%.

**Q.** And the “Summer wheat observed (%)” value (Summer wheat; 28 days after application, 100 g of a.i./ha, without safener)?
**A.** The value was 70%.

**Q.** What about the “Summer barley observed (%)” value (Summer barley; 12.5 g of a.i./ha) of the same compound?
**A.** The value was 8%.

**Q.** And the “Summer barley observed (%)” value (Summer barley; 25 g of a.i./ha)?
**A.** The value was 30%.

**Q.** What about the “Summer barley observed (%)” value (Summer barley; 50 g of a.i./ha) of the same compound?
**A.** Its value is 50%.

**Q.** And the “Summer barley observed (%)” value (Summer barley; 100 g of a.i./ha)?
**A.** Its value is 60%.

**Q.** What does the source list for CCOC1CCC2(CC1)NC(=O)C(c1c(Br)cc(OC(F)(F)F)cc1Br)=C2O (single isomer, unassigned) [I-a-9]?
**A.** Kill rate/% after 6 days [4, 7]: 85%; Kill rate/% after 6 days [4, 8]: 65%

**Q.** How did the efficacy [5] turn out when O=C1NC2(CCOCC2)C(O)=C1c1cc(OC(F)(F)F)ccc1Br [I-a-4] was run?
**A.** Its efficacy is no less than 80%.

**Q.** With COC1CCC2(CC1)NC(=O)C(c1c(C)cc(C)cc1OC(F)(F)F)=C2O (single isomer, unassigned) [I-a-49] as the compound, how does the “Summer wheat observed (%)” value (Summer wheat; 10 days after application, 25 g of a.i./ha, without safener) read?
**A.** Its value is 10%.

**Q.** What about the “Summer wheat observed (%)” value (Summer wheat; 10 days after application, 50 g of a.i./ha, without safener) of the same compound?
**A.** The value was 20%.

**Q.** And the “Summer wheat observed (%)” value (Summer wheat; 10 days after application, 100 g of a.i./ha, without safener)?
**A.** The value was 40%.

**Q.** What does the source list for CCOC1CCCC2(C1)NC(=O)C(c1c(C)cc(C)cc1OC(F)(F)F)=C2OC(C)=O (single isomer, unassigned) [(I-b-24)]?
**A.** Summer wheat observed (%) herbicidal effect (Summer wheat; 12.5 g of a.i./ha, 10 days after application, without safener): 30%; Summer wheat observed (%) herbicidal effect (Summer wheat; 25 g of a.i./ha, 10 days after application, without safener): 40%; Summer wheat observed (%) herbicidal effect (Summer wheat; 50 g of a.i./ha, 10 days after application, without safener): 40%; Summer wheat observed (%) herbicidal effect (Summer wheat; 50 g of a.i./ha, 28 days after application, without safener): 20%; Summer wheat observed (%) herbicidal effect (Summer wheat; 100 g of a.i./ha, 10 days after application, without safener): 40%; Summer wheat observed (%) herbicidal effect (Summer wheat; 100 g of a.i./ha, 28 days after application, without safener): 20%; Summer barley observed (%) herbicidal effect (Summer barley; 12.5 g of a.i./ha): 10%; Summer barley observed (%) herbicidal effect (Summer barley; 25 g of a.i./ha): 20%; Summer barley observed (%) herbicidal effect (Summer barley; 50 g of a.i./ha): 30%; Summer barley observed (%) herbicidal effect (Summer barley; 100 g of a.i./ha): 30%

**Q.** With COC1CCC2(CC1)NC(=O)C(c1c(C)cc(OC(F)(F)F)cc1Cl)=C2O (single isomer, unassigned) [I-a-39] as the compound, how does the “Kill rate/% after 6 days” value ([1]; +AS (1000 ppm)) read?
**A.** Its value is 40%.

**Q.** And the “Kill rate/% after 6 days” value ([1]; without AS)?
**A.** Its value is 10%.
